According to paper PMC12738692, “Identification, characterization, and structure-activity relationship of the ASIC3-selective peptide WRPRFa” (Communications Chemistry, 2025):
Substitutions are numbered along the chain they refer to. Where no end group is shown, it is not given here.

Experiments:
Format in all cases: cell-based
ASIC3 E416Q = target: T1, ASIC3 E416Q (Homo sapiens, UniProt Q9UHC3, E416Q); test: MPC peptide activity on ASIC3 E416Q mutant (incl. double mutant cycle); settings: read-out: EC50 (95% CI)
T1 construct: human ASIC3 (NM_004769.4); P2A-mCherry reporter (C, cleaved yes); expressed in transfected cells; host or cells: CHO cells (85050302, Sigma), transient transfection
T1 sequence (Q9UHC3 1-531 E416Q): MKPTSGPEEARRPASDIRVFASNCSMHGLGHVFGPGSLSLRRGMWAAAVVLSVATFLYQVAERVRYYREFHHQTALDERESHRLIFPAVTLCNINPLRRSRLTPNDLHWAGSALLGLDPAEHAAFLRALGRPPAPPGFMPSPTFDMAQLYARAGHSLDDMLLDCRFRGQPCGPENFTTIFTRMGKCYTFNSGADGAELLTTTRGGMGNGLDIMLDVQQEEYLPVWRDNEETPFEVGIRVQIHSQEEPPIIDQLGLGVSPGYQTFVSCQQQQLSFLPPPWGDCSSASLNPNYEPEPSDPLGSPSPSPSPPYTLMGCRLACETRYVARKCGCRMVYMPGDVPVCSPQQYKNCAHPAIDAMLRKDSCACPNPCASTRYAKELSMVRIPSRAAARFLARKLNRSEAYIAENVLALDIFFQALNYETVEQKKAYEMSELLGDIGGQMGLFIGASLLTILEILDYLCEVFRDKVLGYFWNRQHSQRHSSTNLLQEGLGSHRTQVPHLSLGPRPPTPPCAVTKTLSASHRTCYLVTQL
Protocol: We individually mutated the four glutamates to glutamine to remove their charge but maintain the side chain structure (Fig. 4C). We tested each mutant by incubating HEK cells stably expressing ASIC3 or CHO cells transfected with mutant ASIC3 with 30 µM WRPRFa before a pH 6.3 acid stimulus.
All mutagenesis was performed at Genscript, and sequences were verified by nanopore sequencing by Plasmidsaurus (Eugene, OR). The numbering of ASIC3 amino acids is based on RefSeq NP_004760.1. Plasmids were transfected into CHO cells using Lipofectamine 3000 (Thermo) according to the manufacturer’s protocol. Cells were used for patch-clamp recordings 24–48 h after transfection.
CHO and HEK cells were tested in the whole-cell configuration on MPC platforms using an Axopatch 200B amplifier (Axon Instruments, San Jose, CA) and a Digidata 1322A or Digidata 1440A digitizer (Axon) using pClamp 9.2 or 10.7 (Molecular Devices, San Jose, CA), respectively. When testing transfected cells, red fluorescence from the cleaved mCherry reporter was used to identify cells expressing ASIC3, ASIC131, or ASIC313. For cells expressing transfected ASIC1a or ASIC2a, the green signal from the cleaved eGFP reporter was used. All electrophysiology data were analyzed with Clampfit 11.1 (Molecular Devices).

human ASIC3 [1] = target: T2, human ASIC3 (Homo sapiens, UniProt Q9UHC3); test: Time-dependence of WRPRFa wash off from activated (pH 6.3) and resting (pH 8.0) ASIC3
T2 construct: CHO cells stably expressing human ASIC3 (NM_004769.1)
T2 sequence (Q9UHC3 1-531): T1 sequence (Q9UHC3 1-531 E416Q) with Q416E
Protocol: Next, we assessed the rate at which WRPRFa leaves the channel from the activated and closed states. We preincubated cells with WRPRFa to load channels with peptide, then used two different protocols to remove the peptide. For dissociation from the activated state, we preincubated cells at pH 8.0 with 30 µM WRPRFa, then continuously applied pH 6.3 without WRPRFa to activate the channels while washing off bound peptide. HEK cells poorly tolerate long periods of acid application and sodium influx, so acid application was kept to 1 min. […] The first decrease of current likely arose from desensitization of unbound channels, and possibly also from an initial dissociation of peptide from activated channels, which subsequently desensitized.
For dissociation from resting state channels, we continuously applied pH 8.0 without peptide to remove WRPRFa. Every 20 s the cells were given a 5 s application of pH 6.3 to quantify the remaining sustained current. A 5 s activation was used to minimize wash-off from the activated state, which was deemed negligible based on the observed off-rate under the pH 6.3 condition. The sustained current was about 95% gone after 3 min, with a time constant of 43.5 s (95% CI: 39.0–48.4 s) (Fig. 3D and E). […]

human ASIC3 [2] = target: T2, human ASIC3; settings: 30 µM, QPatch II
ASIC313 = target: T3, ASIC313 (Homo sapiens, UniProt Q9UHC3); test: MPC WRPRFa concentration-response on concatemer ASIC313; settings: read-out: lower limit EC50
T3 construct: placing human ASIC1a and human ASIC3 ORFs in tandem; P2A-mCherry reporter (C, cleaved yes); expressed in transfected cells; host or cells: WT CHO cells (85050302, Sigma), transient transfection
T3 sequence (Q9UHC3 1-531) 1: T1 sequence (Q9UHC3 1-531 E416Q) with Q416E
T3 sequence (Q9UHC3 1-531) 2: T1 sequence (Q9UHC3 1-531 E416Q) with Q416E
From the text: For peptide concentration-response curves, Bottom was set to 0 and Top was constrained to ≤ 1 for peptides that approached plateau phase or where I3s/Ipk reached 1. […] For activation- or desensitization-pH curves, Bottom was set to 0 and Top constrained to 1.

Substance: WRPRF-NH2 [WRPRFa]
- EC50 (ASIC3 E416Q): 2470 nM
- current decrease within first 10 s at pH 6.3 (human ASIC3 [1]; activated state wash off): about 22%
- sustained current gone after 3 min (human ASIC3 [1]; pH 8.0 wash off): about 95%
- channels affected (human ASIC3 [2]): 80%
- EC50 (ASIC313): ≥ 12600 nM
